Experimental data as given in US9089569B2, “1,2,6-substituted benzimidazoles as flap modulators” (JANSSEN PHARMACEUTICA NV, priority 2013, dated 2015).
Where a name gives a salt, the structure may show the parent alone.

Experiments:
[1] = tested on: leukotriene pathway in human whole blood (LTB4); experiment: Human whole blood assay (LTB4, A23187-stimulated); type: cell-based; conditions: human whole blood diluted 1:1, calcium ionophore A23187 stimulation, LTB4 levels
Procedure: An in vitro cellular assay was performed using human whole blood collected in heparin-containing tubes, which was used to test the ability of compounds to modulate the leukotriene pathway in human whole blood. The blood was diluted 1:1 in RPMI medium, pre-incubated for 15 min at 37° Celsius with test compounds at various concentrations, and then stimulated with calcium ionophore, A23187 (7 μg/mL), for 30 min at 37° Celsius. The samples were then centrifuged and plasma was removed. The plasma was diluted in assay buffer and LTB4 levels were measured using a commercial kit (Enzo Life Sciences). The concentration of each compound that was required for half-maximal inhibition (modulation) of […] (IC50) was calculated by a 4-parameter equation using the program GraphPad Prism (GraphPad software). For analysis, data are imported into 3DX and aggregated as the average of duplicates of the calculated ratios in order to calculate Ki and IC50 values. Numbers in parentheses are the number of runs for the assay.

human FLAP = human FLAP (Homo sapiens (Human), UniProt P20292); experiment: FLAP binding assay (HTRF); conditions: wild type FLAP-containing membranes, HTRF format
Procedure: The assay below is used to test the modulatory activity of compounds against FLAP. Human and mouse FLAP-encoding DNA was amplified by polymerase chain reaction and cloned into pFastBac1 (Invitrogen) with a NH2-terminal 6-His tag for expression in Spodoptera frugiperda (Sf-9) cells. FLAP-containing membranes were prepared as was a FITC-labeled FLAP modulator (3-(3-(tert-butylthio)-1-(4-chlorobenzyl)-5-(quinolin-2-ylmethoxy)-1H-indol-2-yl)-2,2-dimethylpropanoic acid). The FLAP binding assay is performed in HTRF format (homogeneous time resolved fluorescence). […] The reaction is allowed to proceed for two hours after which the plate is read on an Envision plate reader in HTRF mode. Data are expressed as a HTRF ratio.
For human FLAP binding assays, data are analyzed with 3DX Explorer software. […] For analysis, data from multiple runs are averaged and each compound may be tested in 2 to 20 runs. Each run comprises two plates and each plate includes duplicates. Data from each plate is averaged and data are imported into 3DX. The data from multiple runs are aggregated as the average of duplicates of the calculated ratios in order to calculate Ki and IC50 values. Numbers in parentheses are the number of runs for the assay.

Chain of human FLAP (P20292 whole entry): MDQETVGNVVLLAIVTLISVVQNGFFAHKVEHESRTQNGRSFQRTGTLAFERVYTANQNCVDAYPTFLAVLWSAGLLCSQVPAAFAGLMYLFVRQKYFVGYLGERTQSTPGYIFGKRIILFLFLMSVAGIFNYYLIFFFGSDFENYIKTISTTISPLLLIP

| SMILES | IC50 [1] | other results |
| --- | --- | --- |
| Cc1ccc(COc2ccc3nc([C@@H]4[C@H](C(=O)O)C4(C)C)n(Cc4ccc(OC(F)(F)F)cc4)c3c2)nc1 (racemic) [Example 25, racemic cis-2,2-Dimethyl-3-{6-[(5-methylpyridin-2-yl)methoxy]-1-[4-(trifluoromethoxy)benzyl]-1H-benzimidazol-2-yl}cyclopropanecarboxylic acid] | 3120 nM | – |
| Cc1ccc(COc2ccc3nc([C@H]4CCCC[C@H]4C(=O)O)n(Cc4ccc(OC(F)(F)F)c(Cl)c4)c3c2)nc1 (racemic) [Example 32, racemic cis-2-{1-[3-Chloro-4-(trifluoromethoxy)benzyl]-6-[(5-methylpyridin-2-yl)methoxy]-1H-benzimidazol-2-yl}cyclohexanecarboxylic acid] | 210 nM | – |
| Cn1ccc(COc2cc3c(cc2F)nc([C@@H]2CCCC[C@@H]2C(=O)O)n3Cc2ccc(OC(F)(F)F)cc2F)n1 (racemic) [Example 90, racemic cis-2-{5-Fluoro-1-[2-fluoro-4-(trifluoromethoxy)benzyl]-6-[(1-methyl-1H-pyrazol-3-yl)methoxy]-1H-benzimidazol-2-yl}cyclohexanecarboxylic acid] | – | Ki (human FLAP): 27 nM |
| Cn1ccc(COc2cc(F)c3nc(C4CCCC[C@@H]4C(=O)O)n(Cc4ccc(N5CC(F)(F)C5)cc4)c3c2)n1 (mixture of isomers) [Example 168, racemic cis-2-{1-[4-(3,3-Difluoroazetidin-1-yl)benzyl]-4-fluoro-6-[(1-methyl-1H-pyrazol-3-yl)methoxy]-1H-benzimidazol-2-yl}cyclohexanecarboxylic acid as the formate salt] | 3570 nM | – |
| Cn1ccc(COc2ccc3nc([C@@H]4CCCC[C@@H]4C(=O)O)n(Cc4ccc(OC(F)(F)F)cc4)c3c2)n1 (relative stereo) [Example 36, (1S*,2R*)-2-{6-[(1-Methyl-1H-pyrazol-3-yl)methoxy]-1-[4-(trifluoromethoxy)benzyl]-1H-benzimidazol-2-yl}cyclohexanecarboxylic acid] | – | IC50 ([1]; Homo sapiens): 590 nM |
| Cn1ccc(COc2ccc3nc([C@@H]4CCCC[C@@H]4C(=O)O)n(Cc4ccc(OC(F)(F)F)cc4)c3c2)n1 (relative stereo) [Example 45, (1R*,2S*)-2-{6-[(1-Methyl-1H-pyrazol-3-yl)methoxy]-1-[4-(trifluoromethoxy)benzyl]-1H-benzimidazol-2-yl}cyclohexanecarboxylic acid] | – | IC50 ([1]; Homo sapiens): > 10000 nM |
| CCC(CC)(Cc1nc2ccc(OCc3ccn(C)n3)cc2n1Cc1ccc(-c2ccc(C(F)(F)F)cc2)cc1)C(=O)O [Example 188, 2-ethyl-2-((6-((1-methyl-1H-pyrazol-3-yl)methoxy)-1-((4′-(trifluoromethyl)-[1,1′-biphenyl]-4-yl)methyl)-1H-benzo[d]imidazol-2-yl)methyl)butanoic acid] | 550 nM | – |
